Patent US8669065B1, “Methods for identifying molecules that modulate lipid binding sites of ion channels” (priority 2011, dated 2014)
≈ marks a conversion by molar mass, not a printed value.

Test: physchem
Conditions: water
Source text: Most native lipids have long fatty acyl side chains rendering them insoluble and difficult to work with in an aqueous environment.

Compound: CCCCCCCC(=O)OC[C@H](COP(=O)(O)O)OC(=O)CCCCCCC [C8-PA]
- solubility: 50 mM (≈ 21.2 mg/mL)
